The values below come from patent US10730843B1, “Quinoxalines useful as cytoprotective agents” (priority 2019, dated 2020).

One experiment deals with Human SH-SY5Y cells. Briefly: Cell rescue assay: protection against ß-amyloid-induced cell toxicity. Particulars: 96 h, 7.5 uM compound, AB1-42 at 10 uM, 4 days, % cell rescue, read-out: Cell Survival %. The class given is cell-based. As for the experimental part:
Protection against ß-amyloid-induced cell toxicity. Chonpathompikunlert et al. Eu. J. Pharmacol. 2011, 650, 544-549. Human SH-SY5Y cells are suspended in media containing 2% FBS and 2× Gentamicin. Transfer 100 ul/well culture to 96-well plate (20,000 cells/well; passage #5) and incubate overnight. Prepare compound samples at 30 uM. Add 50 ul of the samples to the cells [[…]] and incubate 3 hours. Make stock of 40 uM AB1-42 peptide in assay media. Transfer 50 ul/well to cells/compounds in assay plate. The final assay volume is 200 ul/well, containing 2% FBS, 2× Gentamicin, 7.5 uM compound and AB1-42 at 10 uM. Incubate for 4 days then add 20 ul of Promega Substrate Cell Titer 96 Aqueous One Solution Reagent to each well. Incubate 37° C. and read OD at 490 nm. The results are summarized in Table 3, where A represents a value equal to or greater than 50% cell rescue, B represents a value greater than 20% and less than 50% cell rescue, and C represents a value greater than 10% and less than or equal to 20% cell rescue.

In a further experiment the test system is Ob/ob mice. Briefly: Effect of a SERCA agonist on the level of blood glucose. Particulars: Mus musculus, ip, 96 h, 50 mg/kg i.p. once a day for 5 days, fasting glucose at baseline and 4 days after administration, read-out: Glucose level reduction. The class given is in vivo. As for the experimental part:
Ob/ob mice (10 weeks old, n=7) were intraperitoneally (i.p.) injected with 100 μL of a solution containing 0 (vehicle) or 50 mg/kg of a test compound once a day for a total of 5 days. Fasting glucose was measured at baseline and 4 days after the administration of the test compound. Glucose levels were measured in blood samples drawn from the tail vein using a handheld glucose sensor. Compound effects on blood glucose are shown in Table 5 where A represents a 10-20% reduction in blood glucose, B represents a 21-30% reduction in blood glucose, and C represents a greather than 30% reduction in blood glucose levels.

Experiment [1] relates to Human embryonic kidney (HEK293) cells; mouse neuroblastoma (N2a) cells. Description: Cell rescue assay: protection against thapsigargin (TG)-induced cell-death (ALAMARBLUE). The class given is cell-based. Particulars: compound at 20 μM, 2 hrs before thapsigargin (15 μM for HEK293 cells, 1 μM for N2a cells), 24 hrs; viability as % RFU compared to control; cell line not given; read-out: Cell Survival %. The procedure:
Protection against Thapsigargin (TG)-induced Cell-death. Human embryonic kidney (HEK293) cells were grown in Dulbecco's Modified Eagle's Medium (DMEM) with 10% FBS and 1% antibiotic antimycotic solution (ABAM). Mouse neuroblastoma (N2a) cells were grown in 1:1 DMEM:OPTI-MEM® with 5% FBS and 1% ABAM. All cells were grown in 10% CO2 in a humidified environment of the incubator. Cells grown in 96-well plates were exposed to a test compound (20 μM) for 2 hrs before addition of thapsigargin (15 μM for HEK293 cells and 1 μM for N2a cells) to induce ER stress. After incubation in cell-culture incubator for 24 hrs, ALAMARBLUE® regent (10% v/v) was added to the wells. Fluorescence reading was taken 2 hrs after the addition of the ALAMARBLUE® regent. Cell-viability was calculated as a percentage of relative fluorescence unit (RFU) compared to control. […] The biological results are summarized in Table 2, where each compound was tested at 20 μM and where A represents a viability greater than or equal to 50%, B represents a viability greather than 20% and less than 50%, and C represents a value from 10% to 20%.

The test system of a further experiment is CSM14.1 neuronal cells. Briefly: Cell survival assay (thapsigargin-induced cell death, CELLTITER-GLO). The class given is cell-based. Particulars: compound 2 hrs before about 15 μM thapsigargin, overnight (about 16 to 24 hrs), luminescence. The procedure:
CSM14.1 neuronal cells were maintained in Complete Medium at 32° C.; wherein the Complete Medium contained Dulbecco's modified eagle medium (DMEM) with 10% fetal bovine serum (FSB), 1% L-glutamine, 100 IU/mL penicillin, and 100 μg/mL streptomycin. The cells were recovered from cultures by trypsinization and then seeded in 384 well plates (Greiner #781098) at a concentration of 1,000 cells/well in 20 μL of DMEM Assay Medium, wherein the DMEM Assay Medium contained 2% FBS, 100 IU/mL penicillin, and 100 μg/mL streptomycin. Seeding was performed using a MultiDrop Combi reagent broadcaster. The plates were incubated overnight at 32° C. A test compound was prepared by 2-fold serial dilution in 100% DMSO using a BIOMEK® 2000 liquid handler (Beckman Coulter). A dose-response curve containing 10 concentrations of the test compound was obtained. Using a BIOMEK® FX liquid handler (Beckman Coulter), 2.5 μL of the test compound was transferred from the 100% DMSO serial dilution plate to an intermediate plate containing 47.5 μL of DMEM Assay Medium containing 2% FBS, 100 IU/mL penicillin, and 100 μg/mL streptomycin and mixed. To reduce or eliminate the interference from the compound's precipitation, 6 μL of the diluted compound was immediately transferred to the assay plate to achieve a high compound concentration of 100 μM in 99% DMEM Assay Medium and 1% DMSO. After the assay plates were incubated for 2 hrs, 4 μL of 112.5 μM thapsigargin (TG) (DMSO stock diluted into Assay TC Medium) was dispensed into each testing well with a MultiDrop Combi reagent broadcaster for a final concentration of about 15 μM TG. The tissue culture media (4 μL) containing vehicle only was transferred manually to each control cell using a 16 channel electronic pipette. After the plates were incubated overnight (about 16 to 24 hrs), CELLTITER-GLO® (Promega) (16 μL) was added to all wells and luminescence was measured. High luminescence indicates cell survival. The biological results are summarized in Table 1 where A represents a cell viability EC50 less than or equal to 1 μM, B represents a value greater than 1 μM and less than 10 μM, and C represents a value equal to or greather than 10 μM and less than 20 μM.

The next experiment has as its target T1, SERCA (Homo sapiens, UniProt P16615).
T1 construct: microsomal preparations from HEK 293 cells; endogenous in cells; host or cells: HEK 293 cells (microsomal preparation)
Description: Ca-ATPase assay (NADH-linked, enzyme-coupled ATPase assay). The class given is biochemical. Particulars: microsomal preparations from HEK 293 cells; Vmax from fit of ATPase calcium-dependence to the Hill function, relative to controls. As for the experimental part: A Ca-ATPase assay was performed using microsomal preparations from HEK 293 cells at a series of calcium concentrations corresponding to the physiological range, relative to controls. The ATP hydrolysis rate was measured over a range of calcium concentrations in the presence of test compounds using an NADH-linked, enzyme-coupled ATPase assay adapted for 96-well microplates, with Vmax determined by fitting the ATPase calcium-dependence to the Hill function. Each well contained 2 μg or 7 μg of SR vesicles (optimized for skeletal or cardiac SR, respectively), 50 mM MOPS (pH 7.0), 100 mM KCl, 5 mM MgCl2, 1 mM EGTA, 0.2 mM NADH, 1 mM phosphoenol pyruvate, 5 IU pyruvate kinase, 5 IU lactate dehydrogenase, and 3.5 μg/mL A23187 (a calcium ionophore). CaCl2 was added to set free [Ca^2+] to the specific values. The assay was started upon addition of ATP at a final concentration of 5 mM, and read in a SpectraMax Plus microplate spectrophotometer. The results are summarized in Table 4, where A represents an increase in SERCA Vmax greater than or equal to 50% and B represents a value greater than 10% and less than 50%.

T1 sequence (P16615 whole entry): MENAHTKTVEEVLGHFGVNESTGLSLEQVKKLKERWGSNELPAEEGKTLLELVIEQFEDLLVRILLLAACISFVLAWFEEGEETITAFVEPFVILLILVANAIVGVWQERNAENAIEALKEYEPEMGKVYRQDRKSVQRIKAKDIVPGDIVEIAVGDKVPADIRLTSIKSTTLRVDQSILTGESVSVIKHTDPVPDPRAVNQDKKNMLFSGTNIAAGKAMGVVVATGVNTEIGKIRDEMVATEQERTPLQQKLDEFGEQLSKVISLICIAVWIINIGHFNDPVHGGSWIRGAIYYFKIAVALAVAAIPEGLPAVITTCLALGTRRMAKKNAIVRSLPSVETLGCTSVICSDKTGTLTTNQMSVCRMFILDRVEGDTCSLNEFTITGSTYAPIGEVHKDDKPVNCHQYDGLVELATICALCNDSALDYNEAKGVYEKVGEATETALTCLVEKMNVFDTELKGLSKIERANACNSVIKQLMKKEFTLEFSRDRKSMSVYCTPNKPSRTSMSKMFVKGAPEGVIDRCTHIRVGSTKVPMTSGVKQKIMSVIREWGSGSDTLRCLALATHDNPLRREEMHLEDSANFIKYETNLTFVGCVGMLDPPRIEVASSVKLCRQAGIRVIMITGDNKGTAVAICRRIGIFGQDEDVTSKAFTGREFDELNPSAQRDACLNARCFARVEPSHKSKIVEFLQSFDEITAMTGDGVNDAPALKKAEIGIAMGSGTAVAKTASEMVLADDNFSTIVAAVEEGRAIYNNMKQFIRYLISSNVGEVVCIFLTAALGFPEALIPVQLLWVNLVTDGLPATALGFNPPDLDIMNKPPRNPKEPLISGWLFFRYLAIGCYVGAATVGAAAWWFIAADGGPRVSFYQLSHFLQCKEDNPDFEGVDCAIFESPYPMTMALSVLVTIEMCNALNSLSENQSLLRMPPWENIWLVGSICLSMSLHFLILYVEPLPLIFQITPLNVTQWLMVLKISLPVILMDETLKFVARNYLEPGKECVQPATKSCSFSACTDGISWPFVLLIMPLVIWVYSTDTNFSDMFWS

`O=C(Nc1cccc2nccnc12)c1ccc(C(F)(F)F)cc1` [A9, N-(quinoxalin-5-yl)-4-(trifluoromethyl)benzamide]: the viability at 7.5 µM in the experiment with Human SH-SY5Y cells is 10 to 20%. Besides, the inhibition in vivo at 50 mg/kg with Ob/ob mice lay within 21 to 30%. Also, in experiment [1], the viability at 20 µM was 20 to 50%. Also, in the experiment with CSM14.1 neuronal cells, the EC50 is no more than 1 µM. Moreover, at SERCA, the “SERCA Vmax Increase” value is given as “A (A represents an increase in SERCA Vmax greater than or equal to 50%)”.
With `O=C(Nc1cccc2nccnc12)c1cc2ccccc2s1` [A6, N-(Quinoxalin-5-yl)benzo[b]thiophene-2-carboxamide], the viability at 7.5 µM with Human SH-SY5Y cells was in the range of 20 to 50%. For the same compound, in the experiment with Ob/ob mice, the inhibition in vivo at 50 mg/kg was 10 to 20%. Further, in experiment [1], the viability at 20 µM fell in the range of 10 to 20%. Further, the EC50 in the experiment with CSM14.1 neuronal cells was in the range of 1 to 10 µM. Further, the “SERCA Vmax Increase” value on SERCA was “B (B represents a value greater than 10% and less than 50%)”.
As for `CC(C)Oc1ccc(C(=O)Nc2cccc3nccnc23)cc1` [A1, 4-Isopropoxy-N-(quinoxalin-5-yl)benzamide], the viability at 7.5 µM in the experiment on Human SH-SY5Y cells is no less than 50%. Moreover, the inhibition in vivo at 50 mg/kg with Ob/ob mice is 21 to 30%. Besides, the viability at 20 µM in experiment [1] lay within 20 to 50%. Besides, the EC50 in the experiment with CSM14.1 neuronal cells is 1 to 10 µM. For the same compound, the “SERCA Vmax Increase” value on SERCA is given as “A (A represents an increase in SERCA Vmax greater than or equal to 50%)”.
For `Cc1ccc(C(=O)Nc2cccc3nccnc23)s1` [A4, 5-Methyl-N-(quinoxalin-5-yl)thiophene-2-carboxamide], in the experiment on Human SH-SY5Y cells, the viability at 7.5 µM was no less than 50%. The inhibition in vivo at 50 mg/kg with Ob/ob mice is 10 to 20%. Besides, in experiment [1], the viability at 20 µM was no less than 50%. The compound also registered an EC50 in the experiment on CSM14.1 neuronal cells of 1 to 10 µM. Besides, the “SERCA Vmax Increase” value on SERCA is “A (A represents an increase in SERCA Vmax greater than or equal to 50%)”.
For `O=C(Nc1cccc2nccnc12)c1cc(Br)cs1` [A2, 4-Bromo-N-(quinoxalin-5-yl)thiophene-2-carboxamide], in the experiment with Human SH-SY5Y cells, the viability at 7.5 µM fell in the range of 10 to 20%. Moreover, the inhibition in vivo at 50 mg/kg with Ob/ob mice fell in the range of 21 to 30%. The viability at 20 µM in experiment [1] lay within 20 to 50%. For the same compound, the EC50 with CSM14.1 neuronal cells was 1 to 10 µM. Further, at SERCA, the “SERCA Vmax Increase” value is “B (B represents a value greater than 10% and less than 50%)”.
Turning to `O=C(Nc1cccc2nccnc12)c1cccc(F)c1` [A10, 3-fluoro-N-(quinoxalin-5-yl)benzamide], the viability at 7.5 µM with Human SH-SY5Y cells lay in the range of 20 to 50%. For the same compound, in the experiment with Ob/ob mice, the inhibition in vivo at 50 mg/kg was greater than 30%. Moreover, the viability at 20 µM in experiment [1] lay in the range of 10 to 20%. In the experiment with CSM14.1 neuronal cells, this compound returned an EC50 of 1 to 10 µM. At SERCA, the “SERCA Vmax Increase” value is “A (A represents an increase in SERCA Vmax greater than or equal to 50%)”.
The matching figures for `O=C(Nc1cccc2nccnc12)c1ccc(Br)s1` [A3, 5-Bromo-N-(quinoxalin-5-yl)thiophene-2-carboxamide]: 20 to 50%, 10 to 20%, 10 to 20%, 10 to 20 µM and “A (A represents an increase in SERCA Vmax greater than or equal to 50%)”.
Turning to `CC(C)Oc1cccc(C(=O)Nc2cccc3nccnc23)c1` [A8, 3-Isopropoxy-N-(quinoxalin-5-yl)benzamide], the viability at 7.5 µM in the experiment on Human SH-SY5Y cells was in the range of 20 to 50%. Further, the inhibition in vivo at 50 mg/kg in the experiment on Ob/ob mice lay within 21 to 30%. In experiment [1], the viability at 20 µM was in the range of 20 to 50%. Besides, in the experiment with CSM14.1 neuronal cells, the EC50 is 10 to 20 µM. Moreover, the “SERCA Vmax Increase” value at SERCA is “B (B represents a value greater than 10% and less than 50%)”.
For the compound `O=C(Nc1cccc2nccnc12)c1cccs1` [A5, N-(Quinoxalin-5-yl)thiophene-2-carboxamide], in the experiment with Human SH-SY5Y cells, the viability at 7.5 µM lay in the range of 20 to 50%. For the same compound, in the experiment with Ob/ob mice, the inhibition in vivo at 50 mg/kg was greater than 30%. For the same compound, the viability at 20 µM in experiment [1] was 10 to 20%. For the same compound, the EC50 in the experiment with CSM14.1 neuronal cells lay within 10 to 20 µM. Besides, the “SERCA Vmax Increase” value on SERCA is on record as “A (A represents an increase in SERCA Vmax greater than or equal to 50%)”.
For the compound `O=C(Nc1cccc2nccnc12)c1ccc(Cl)cc1` [A7, 4-Chloro-N-(quinoxalin-5-yl)benzamide], in the experiment with Human SH-SY5Y cells, the viability at 7.5 µM is 20 to 50%. For the same compound, in the experiment on Ob/ob mice, the inhibition in vivo at 50 mg/kg lay within 10 to 20%. The viability at 20 µM in experiment [1] was no less than 50%. In the experiment with CSM14.1 neuronal cells, this compound showed an EC50 of no more than 1 µM. For the same compound, on SERCA, the “SERCA Vmax Increase” value was “B (B represents a value greater than 10% and less than 50%)”.
